According to patent US20220340687A1 (NOVARTIS AG, priority 2019, published 2022):

What was measured:
Assay type in all cases: cell-based, human
[1] = test system: pDCs cocultured with naïve CD4+ T cells; assay: Blocking experiments (IDO, PD-L1, IFN-α) on Treg cells generation by pDCs in coculture; settings: added to the coculture; p=0.07
Description: Additionally, it is claimed that IFN-α itself induces the generation of Treg cells.

[2] = test system: IgE bound to FcεR1 on pDCs; assay: Removal of membrane-bound IgE from purified pDCs; settings: pDCs from atopic donors, IL-3, 5, 10 and mg/mL of Oma, 24 hours
Procedure: (§1) A) Left: Frequency of FcεR1α-bound IgE+ cells gated in pDCs. Right: Frequency of cells with unoccupied FcεR1, gated in pDCs (n=4). B) Viability of pDCs after 24 hours incubation with Oma (n=2). Values are given as mean±SEM. **p<0.01, *p<0.05 in paired t-test comparing multiple conditions.

[3] = test system: pDCs; assay: Viability of pDCs after incubation with Oma; settings: 24 hours incubation with Oma
Procedure: as §1

[4] = test system: pDCs; assay: Cytokine signature of TLR9-L-activated pDCs under IgE-FcεR1-crosslinker (ELISA); settings: omalizumab 10 mg/mL 24 hours prior to crosslinker and TLR9-L, ELISA 24 hours after activation, compared to crosslinker condition
Procedure: Then, the cytokine profile was analysed by ELISA 24 hours after activation.

[5] = test system: pDCs cocultured with naïve CD4+ T cells; assay: Generation of Treg cells by pDCs: omalizumab in comparison to corticosteroids; settings: 5 or 10 mg/mL of omalizumab for 24 hours before crosslinker and TLR9-L; coculture 5 days
Procedure: After 24 hours, the pDCs were washed and cocultured with naïve CD4+ T cells for 5 days.

Sequence of IgE bound to FcεR1 on pDCs (P01854 1-428 isoform P01854-1): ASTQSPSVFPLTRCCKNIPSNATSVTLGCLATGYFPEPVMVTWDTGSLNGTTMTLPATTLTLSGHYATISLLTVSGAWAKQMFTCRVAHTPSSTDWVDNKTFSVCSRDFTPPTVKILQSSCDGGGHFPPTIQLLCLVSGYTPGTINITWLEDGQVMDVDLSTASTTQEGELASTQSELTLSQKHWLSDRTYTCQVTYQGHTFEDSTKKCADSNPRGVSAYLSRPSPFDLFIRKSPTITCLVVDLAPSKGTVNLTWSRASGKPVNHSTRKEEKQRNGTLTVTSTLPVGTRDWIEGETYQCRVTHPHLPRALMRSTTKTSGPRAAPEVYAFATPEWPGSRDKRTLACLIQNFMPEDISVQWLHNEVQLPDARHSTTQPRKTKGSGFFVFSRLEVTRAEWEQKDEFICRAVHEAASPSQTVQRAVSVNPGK

With `Nc1ccccc1C(=O)CC(N)C(=O)O` (centres unmarked) [kyn, kynurenine] the “pDCs capacity to induce Treg cells under IgE-FcεR1-crosslinker condition” value [1] was “increased”.
For “Omalizumab: recombinant DNA-derived humanized monoclonal antibody that selectively binds to free, circulating human immunoglobulin E (IgE)”, the “IgE bound to FcεR1 on pDCs (IgE mean fluorescence intensity, MFI)” value [2] was “decrease in IgE mean fluorescence intensity (MFI) in a dose-dependent manner”, the “frequency of pDCs with FcεR1-bound IgE (FcεR1+IgE+pDCs)” value [2] was “significant reduction” and the “levels of pDCs with unoccupied FcεR1 (FcεR1+IgE-pDCs)” value [2] was “increased levels”. The pDCs viability [3] was “did not affect pDCs viability”, the TNF-α levels ([4]; p=0.04) was “retained low TNF-α levels” and the “pDCs capacity to produce IFN-α” value ([4]; p=0.05) was “restored pDCs capacity to produce IFN-α”. For the same compound, the “crosslinker-induced decrease of the frequency of induced Treg cells” value [5] was “reverted by Omalizumab in a dose dependent manner”.
